Counter-ions that a name gives are not always drawn. Like-named read-outs stand apart in the source and are kept apart here.
What was measured:
[1] = boiling point; Table 2, preferred dielectric compounds; cited from earlier work
[2] = Breakdown voltage at maximum system pressure; format: physicochemical; settings: for Breakdown voltage at maximum pressure: at maximum pressure: 5 atmospheres (73.5 psia), or lower pressure at which the gas liquefies; for Breakdown voltage compared with air: 1 atmosphere and maximum system pressure
[3] = Dielectric strength by ASTM D2477; format: physicochemical; settings: 1 atmosphere pressure, 0.1 inch gap, ambient temperature; ASTM D2477 or from literature
[4] = gas phase; cited from earlier work
[5] = normal state; cited from earlier work
[6] = atmospheric pressure; cited from earlier work

| SMILES | MY BP [1] | other results |
| --- | --- | --- |
| CC(N)C(=O)O (racemic) [DL-2-aminopropanoic acid] | −50.2 °C |  |
| FCC(F)(F)F [1,1,1,2-Tetrafluoroethane] | −26.1 °C |  |
| FC(F)(F)C#CC(F)(F)F [1,1,1,4,4,4-hexafluoro-2-butyne] | −24.6 °C |  |
| FC(F)C(F)F [1,1,2,2-Tetrafluoroethane] | −23.0 °C |  |
| O=C(C(=O)C(F)F)C(F)F [1,1,4,4-tetrafluoro-butane-2,3-dione] | −81.0 °C |  |
| C#CC(F)(F)F [3,3,3-trifluoro-propyne] | −48.0 °C |  |
| N [Ammonia] | −33.3 °C |  |
| FCF [Difluoromethane] | −51.7 °C |  |
| FC(F)OC(F)(F)F [Difluoromethyl trifluoromethyl ether] | −35.3 °C |  |
| CC [Ethane] | −88.6 °C |  |
| COC(F)(F)F [Ether, methyl trifluoromethyl] | −24.0 °C |  |
| CCF [Fluoroethane] | −37.7 °C |  |
| FC(F)C(F)(F)F [Gas R125, Pentafluoroethane] |  | Breakdown voltage at maximum pressure [2]: 32 kV/0.1 inch gap; Dielectric strength [3]: 6.4 kV/0.1 inch gap |
| FCC(F)(F)F [Gas R134a, 1,1,1,2-Tetrafluoroethane] |  | Breakdown voltage at maximum pressure [2]: 33 kV/0.1 inch gap; Dielectric strength [3]: 6.6 kV/0.1 inch gap |
| CC(F)(F)F [Gas R143a, 1,1,1-Trifluoroethane] |  | Breakdown voltage at maximum pressure [2]: 29 kV/0.1 inch gap; Dielectric strength [3]: 5.8 kV/0.1 inch gap |
| CC(F)F [Gas R152a, 1,1-Difluoroethane] |  | Breakdown voltage at maximum pressure [2]: 29.5 kV/0.1 inch gap; Dielectric strength [3]: 5.9 kV/0.1 inch gap |
| Cl [HCl, hydrogen chloride] |  | Breakdown voltage compared with air [2]: greater then air |
| FC(F)(F)C(F)(F)F [Hexafluoroethane] | −78.2 °C |  |
| Cl [Hydrogen chloride] | −85.0 °C |  |
| N#N [Nitrogen] | −195.8 °C |  |
| [N-]=[N+]=O [Nitrous oxide] | −88.5 °C |  |
| FC(F)(F)C(F)(F)C(F)(F)F [Octafluoropropane] | −36.7 °C |  |
| FS(F)(F)(F)(F)F [SF6, Sulfur hexafluoride] |  | Breakdown voltage at maximum pressure [2]: 70 kV/0.1 inch gap; Dielectric strength [3]: 14.0 kV/0.1 inch gap; Temperature below which it does not decompose [4]: ≥ 500 °C; Toxicity [5]: non-toxic; Breakdown voltage compared with air [6]: nearly three times higher than air |
| F[Si](F)(F)F [SiF4, silicon tetrafluoride] |  | Breakdown voltage compared with air [2]: greater then air |
| FC(F)(F)F [Tetrafluoromethane] | −128.1 °C |  |
| N#CC(F)(F)F [Trifluoroacetonitrile] | −68.8 °C |  |
| FC(F)F [Trifluoromethane] | −82.1 °C |  |
| O=CC(F)(F)F [trifluoroacetaldehyde] | −21.0 °C |  |
| FC(F)(F)S [trifluoromethane thiol] | −36.7 °C |  |
